Experimental data taken from patent publication US8952034B2, “Fused heterocyclic compounds as ion channel modulators” (Gilead Sciences, Inc., priority 2009, dated 2015).

Target: wild-type human cardiac sodium channel, hNav1.5 (Homo sapiens, UniProt Q14524)
Experiment: Late INa screening assay (automated whole cell patch clamp, PatchXpress)
Assay type: cell-based
Details: compound at 1 μM; HEK293 cells expressing hNav1.5; late INa generated with 10 μM Tefluthrin (or 50 nM ATX II); read-out: LateINa_1 uM (percent block of late INa)
In short: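 Late sodium current through wild-type human hNav1.5 stably expressed in HEK293 cells (no beta subunits) was recorded by automated whole-cell patch clamp on a PatchXpress 7000A at 24-27° C. Late INa was induced with 10 μM Tefluthrin or 50 nM ATX II. Cells were stepped from −120 mV to −20 mV for 250 ms at 0.1 Hz, and percent block was normalized to current in Na-free extracellular solution.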

wild-type human cardiac sodium channel, hNav1.5, sequence (Q14524 whole entry): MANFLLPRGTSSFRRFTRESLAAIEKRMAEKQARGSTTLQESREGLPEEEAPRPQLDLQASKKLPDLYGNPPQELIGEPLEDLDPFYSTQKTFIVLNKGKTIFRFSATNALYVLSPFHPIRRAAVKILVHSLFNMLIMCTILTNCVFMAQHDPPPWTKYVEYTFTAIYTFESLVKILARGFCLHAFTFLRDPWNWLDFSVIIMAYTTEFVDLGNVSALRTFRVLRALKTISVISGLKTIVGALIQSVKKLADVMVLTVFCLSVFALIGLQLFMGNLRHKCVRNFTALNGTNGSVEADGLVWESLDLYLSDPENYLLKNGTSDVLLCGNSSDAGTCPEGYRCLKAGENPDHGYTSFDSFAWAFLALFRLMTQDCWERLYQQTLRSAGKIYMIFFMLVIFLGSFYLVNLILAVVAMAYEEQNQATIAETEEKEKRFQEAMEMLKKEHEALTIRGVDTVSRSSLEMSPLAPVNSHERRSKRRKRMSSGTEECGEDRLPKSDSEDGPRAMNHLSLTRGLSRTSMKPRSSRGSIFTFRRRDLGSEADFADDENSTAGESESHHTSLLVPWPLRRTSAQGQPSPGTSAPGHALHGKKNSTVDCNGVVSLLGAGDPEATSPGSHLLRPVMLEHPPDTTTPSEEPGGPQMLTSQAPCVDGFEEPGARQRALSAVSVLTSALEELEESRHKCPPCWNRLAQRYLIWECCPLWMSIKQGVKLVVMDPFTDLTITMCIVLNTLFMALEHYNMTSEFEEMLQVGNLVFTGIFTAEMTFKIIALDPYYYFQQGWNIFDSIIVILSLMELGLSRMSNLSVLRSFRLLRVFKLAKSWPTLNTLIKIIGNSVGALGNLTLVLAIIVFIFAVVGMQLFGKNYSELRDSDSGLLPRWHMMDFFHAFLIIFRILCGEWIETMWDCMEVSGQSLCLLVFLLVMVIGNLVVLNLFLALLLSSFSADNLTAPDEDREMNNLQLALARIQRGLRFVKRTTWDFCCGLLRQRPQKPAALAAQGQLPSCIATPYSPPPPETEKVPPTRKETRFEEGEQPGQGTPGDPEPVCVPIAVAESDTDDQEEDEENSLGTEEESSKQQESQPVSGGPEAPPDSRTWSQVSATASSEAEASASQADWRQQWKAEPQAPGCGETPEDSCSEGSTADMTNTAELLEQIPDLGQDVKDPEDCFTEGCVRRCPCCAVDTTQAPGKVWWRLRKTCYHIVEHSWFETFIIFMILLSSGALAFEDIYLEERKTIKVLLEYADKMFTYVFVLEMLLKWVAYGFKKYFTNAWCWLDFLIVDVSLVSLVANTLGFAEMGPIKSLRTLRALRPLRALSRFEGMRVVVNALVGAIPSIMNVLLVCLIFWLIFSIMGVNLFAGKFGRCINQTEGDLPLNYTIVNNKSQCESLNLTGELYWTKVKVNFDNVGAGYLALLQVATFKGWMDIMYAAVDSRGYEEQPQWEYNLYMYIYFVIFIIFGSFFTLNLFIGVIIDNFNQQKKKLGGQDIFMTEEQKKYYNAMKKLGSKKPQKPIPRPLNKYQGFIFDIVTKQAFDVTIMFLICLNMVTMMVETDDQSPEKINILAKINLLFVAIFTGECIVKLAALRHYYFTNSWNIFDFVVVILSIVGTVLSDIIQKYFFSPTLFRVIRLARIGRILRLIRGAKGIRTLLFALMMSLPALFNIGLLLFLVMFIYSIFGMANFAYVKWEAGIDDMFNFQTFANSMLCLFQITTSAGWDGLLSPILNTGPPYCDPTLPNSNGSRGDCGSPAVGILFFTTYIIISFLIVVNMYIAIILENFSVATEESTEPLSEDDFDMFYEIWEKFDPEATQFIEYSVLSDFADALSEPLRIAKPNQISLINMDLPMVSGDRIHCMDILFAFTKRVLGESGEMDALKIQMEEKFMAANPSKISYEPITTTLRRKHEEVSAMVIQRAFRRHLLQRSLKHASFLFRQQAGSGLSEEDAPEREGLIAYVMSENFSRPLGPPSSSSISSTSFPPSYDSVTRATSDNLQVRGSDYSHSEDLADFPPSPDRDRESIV

In order of rising inhibition at 1 µM:
1. FC(F)(F)Oc1ccc(-c2ccc3nnc(C(F)(F)COCc4cccnc4)n3c2)cc1 [BHN-139, 3-[1,1-difluoro-2-(pyridin-3-ylmethoxy)ethyl]-6-[4-(trifluoromethoxy)phenyl][1,2,4]triazolo[4,3-a]pyridine]  15.4%
2. CC(OC(F)(F)c1nnc2ccc(-c3ccc(OC(F)(F)F)cc3)cn12)c1ccc(F)cc1 (stereo not shown) [BHN-217, 3-{difluoro[1-(4-fluorophenyl)ethoxy]methyl}-6-[4-(trifluoromethoxy)phenyl][1,2,4]triazolo[4,3-a]pyridine]  16.8%
3. FC(F)(F)Oc1ccc(-c2ccc3nnc(COCc4ccccn4)n3c2)cc1 [BHN-244, 3-[(pyridin-2-ylmethoxy)methyl]-6-[4-(trifluoromethoxy)phenyl][1,2,4]triazolo[4,3-a]pyridine]  17.5%
4. O=C(NCC(F)(F)c1nnc2ccc(-c3ccc(OC(F)(F)F)cc3)cn12)c1ccccc1 [BHN-243, N-(2,2-difluoro-2-{6-[4-(trifluoromethoxy)phenyl][1,2,4]triazolo[4,3-a]pyridin-3-yl}ethyl)benzamide]  21%
5. FC(F)(F)c1nnc2ccc(-c3ccc(NC(c4ccccc4)C(F)(F)F)cc3)cn12 (stereo not shown) [BHN-123, 4-[3-(trifluoromethyl)[1,2,4]triazolo[4,3-a]pyridin-6-yl]-N-(2,2,2-trifluoro-1-phenylethyl)aniline]  23.4%
6. COc1ccc(-c2ccc3cnc(C(F)(F)F)n3c2)cc1 [BHN-30, 6-(4-methoxyphenyl)-3-(trifluoromethyl)imidazo[1,5-a]pyridine]  24.6%
7. FC(F)(F)Oc1ccc(-c2ccc3nnc(C(F)(F)OCc4cccnn4)n3c2)cc1 [BHN-216, 3-[difluoro(pyridazin-3-ylmethoxy)methyl]-6-[4-(trifluoromethoxy)phenyl][1,2,4]triazolo[4,3-a]pyridine]  26.1%
8. FC(F)(F)c1ccc(C#Cc2ccc3nnc(Oc4ccccc4)n3c2)cc1 [BHN-304, 3-phenoxy-6-{[4-(trifluoromethyl)phenyl]ethynyl}[1,2,4]triazolo[4,3-a]pyridine]  28.2%
9. Fc1ccccc1Oc1ccc(-c2ccc3nnc(C(F)(F)F)n3c2)cc1 [BHN-112, 6-[4-(2-fluorophenoxy)phenyl]-3-(trifluoromethyl)[1,2,4]triazolo[4,3-a]pyridine]  32.9%
10. FC(F)(F)Oc1ccc(-c2ccc3nnc(C(F)(F)OCc4ccncc4)n3c2)cc1 [BHN-149, 3-[difluoro(pyridin-4-ylmethoxy)methyl]-6-[4-(trifluoromethoxy)phenyl][1,2,4]triazolo[4,3-a]pyridine]  34%
11. FC(F)(F)Oc1ccc(-c2ccc3nnc(C(F)(F)OCc4cn(-c5ccccc5)nn4)n3c2)cc1 [BHN-215, 3-{difluoro[(1-phenyl-1H-1,2,3-triazol-4-yl)methoxy]methyl}-6-[4-(trifluoromethoxy)phenyl][1,2,4]triazolo[4,3-a]pyridine]  36.4%
12. Cc1ccc(C)c(OCC(O)COCC(F)(F)c2nnc3ccc(-c4ccc(OC(F)(F)F)cc4)cn23)c1 (stereo not shown) [BHN-274, 1-(2,2-difluoro-2-{6-[4-(trifluoromethoxy)phenyl][1,2,4]triazolo[4,3-a]pyridin-3-yl}ethoxy)-3-(2,5-dimethylphenoxy)propan-2-ol]  38.9%
13. FC(F)c1nnc2ccc(-c3ccc(OCC(F)(F)F)nc3)nn12 [BHN-237, 3-(difluoromethyl)-6-[6-(2,2,2-trifluoroethoxy)pyridin-3-yl][1,2,4]triazolo[4,3-b]pyridazine]  44.7%
14. FC(F)c1nnc2ccc(-c3ccc(Oc4ccccc4)cc3)nn12 [BHN-13, 3-(difluoromethyl)-6-(4-phenoxyphenyl)[1,2,4]triazolo[4,3-b]pyridazine]  44.8%
15. FC(F)(F)Oc1ccc(-c2ccc3nnc(COC(F)(F)c4cccnc4)n3c2)cc1 [BHN-257, 3-{[difluoro(pyridin-3-yl)methoxy]methyl}-6-[4-(trifluoromethoxy)phenyl][1,2,4]triazolo[4,3-a]pyridine]  46.2%
16. FC(F)(F)Oc1ccc(-c2ccc3nnc(C(F)(F)OCc4ccc5nccnc5c4)n3c2)cc1 [BHN-291, 6-[(difluoro{6-[4-(trifluoromethoxy)phenyl][1,2,4]triazolo[4,3-a]pyridin-3-yl}methoxy)methyl]quinoxaline]  47%
17. N#CC1(c2ccc(-c3ccc4nnc(C(F)(F)F)n4c3)cc2)CC1 [BHN-195, 1-{4-[3-(trifluoromethyl)[1,2,4]triazolo[4,3-a]pyridin-6-yl]phenyl}cyclopropanecarbonitrile]  47.3%
18. FC(F)(F)COCc1nnc2ccc(-c3ccc(OC(F)(F)F)cc3)cn12 [BHN-129, 3-[(2,2,2-trifluoroethoxy)methyl]-6-[4-(trifluoromethoxy)phenyl][1,2,4]triazolo[4,3-a]pyridine]  48.4%
19. COc1cc(C(F)(F)F)ccc1-c1ccc2nnc(C(F)(F)F)n2c1 [BHN-105, 6-[2-methoxy-4-(trifluoromethyl)phenyl]-3-(trifluoromethyl)[1,2,4]triazolo[4,3-a]pyridine]  49.3%
20. FC(F)c1nnc2cnc(-c3ccc(OC(F)(F)F)cc3)cn12 [BHN-23, 3-(difluoromethyl)-6-[4-(trifluoromethoxy)phenyl][1,2,4]triazolo[4,3-a]pyrazine]  53.5%
21. FC(F)(F)Oc1ccc(-c2ccc3nnc(C(F)(F)OCc4ccccc4-c4cccnc4)n3c2)cc1 [BHN-327, 3-(difluoro{[2-(pyridin-3-yl)benzyl]oxy}methyl)-6-[4-(trifluoromethoxy)phenyl][1,2,4]triazolo[4,3-a]pyridine]  54.2%
22. Cc1cc(COC(F)(F)c2nnc3ccc(-c4ccc(OC(F)(F)F)cc4)cn23)no1 [BHN-193, 3-{difluoro[(5-methyl-1,2-oxazol-3-yl)methoxy]methyl}-6-[4-(trifluoromethoxy)phenyl][1,2,4]triazolo[4,3-a]pyridine]  54.7%
23. Fc1cc(OC(F)(F)F)ccc1-c1ccc2nnc(C(F)(F)F)n2c1 [BHN-145, 6-[2-fluoro-4-(trifluoromethoxy)phenyl]-3-(trifluoromethyl)[1,2,4]triazolo[4,3-a]pyridine]  55.3%
24. FC(F)(F)Oc1ccc(-c2ccc3nnc(COCc4ccc(C(F)(F)F)cc4)n3c2)cc1 [BHN-226, 6-[4-(trifluoromethoxy)phenyl]-3-({[4-(trifluoromethyl)benzyl]oxy}methyl)[1,2,4]triazolo[4,3-a]pyridine]  59.3%
25. CC(C)Cc1nc(COC(F)(F)c2nnc3ccc(-c4ccc(OC(F)(F)F)cc4)cn23)no1 [BHN-207, 3-(difluoro{[5-(2-methylpropyl)-1,2,4-oxadiazol-3-yl]methoxy}methyl)-6-[4-(trifluoromethoxy)phenyl][1,2,4]triazolo[4,3-a]pyridine]  60.3%
26. FC(F)(F)c1nnc2ccc(-c3ccc(OC(F)(F)c4ccccc4)cc3)cn12 [BHN-272, 6-{4-[difluoro(phenyl)methoxy]phenyl}-3-(trifluoromethyl)[1,2,4]triazolo[4,3-a]pyridine]  64.9%
27. FC(F)(F)Oc1ccc(-c2ccc3nnc(Sc4ccccc4)n3c2)cc1 [BHN-170, 3-(phenylsulfanyl)-6-[4-(trifluoromethoxy)phenyl][1,2,4]triazolo[4,3-a]pyridine]  66.2%
28. Cc1ccccc1Oc1nnc2ccc(-c3ccc(OC(F)(F)F)cc3)cn12 [BHN-273, 3-(2-methylphenoxy)-6-[4-(trifluoromethoxy)phenyl][1,2,4]triazolo[4,3-a]pyridine]  68.7%
29. Fc1ccccc1COCc1nnc2ccc(-c3ccc(OC(F)(F)F)cc3)cn12 [BHN-238, 3-{[(2-fluorobenzyl)oxy]methyl}-6-[4-(trifluoromethoxy)phenyl][1,2,4]triazolo[4,3-a]pyridine]  80.6%

Same assay, conditions: compound at 10 μM; HEK293 cells expressing hNav1.5; late INa generated with 10 μM Tefluthrin (or 50 nM ATX II); read-out: LateINa_10 uM (percent block of late INa)

In order of rising inhibition at 10 µM:
1. NC(=O)c1ccc(-c2nnc3ccc(-c4ccc(OC(F)(F)F)cc4)cn23)cc1 [BHN-79, 4-{6-[4-(trifluoromethoxy)phenyl][1,2,4]triazolo[4,3-a]pyridin-3-yl}benzamide]  19.3%
2. CS(=O)(=O)Nc1ccccc1-c1nnc2ccc(-c3ccc(OC(F)(F)F)cc3)cn12 [BHN-93, N-(2-{6-[4-(trifluoromethoxy)phenyl][1,2,4]triazolo[4,3-a]pyridin-3-yl}phenyl)methanesulfonamide]  21%
3. CCNc1nnc2ccc(-c3ccc(Oc4ccccc4)cc3)cn12 [BHN-334, N-ethyl-6-(4-phenoxyphenyl)[1,2,4]triazolo[4,3-a]pyridin-3-amine]  40.6%
4. N#Cc1ccc(-c2nnc3ccc(-c4ccc(OC(F)(F)F)cc4)nn23)cc1 [BHN-42, 4-{6-[4-(trifluoromethoxy)phenyl][1,2,4]triazolo[4,3-b]pyridazin-3-yl}benzonitrile]  43.8%
5. CC(C)(O)c1nnc2ccc(-c3ccc(Oc4ccccc4)cc3)nn12 [BHN-60, 2-[6-(4-phenoxyphenyl)[1,2,4]triazolo[4,3-b]pyridazin-3-yl]propan-2-ol]  48.6%
6. FC(F)(F)c1ncc2ccc(-c3ccc(Oc4ccccc4)cc3)cn12 [BHN-7, 6-(4-phenoxyphenyl)-3-(trifluoromethyl)imidazo[1,5-a]pyridine]  55.4%
7. Cc1cc(OC(F)(F)F)ccc1-c1ccc2nnc(-c3ccc(C#N)cc3)n2n1 [BHN-41, 4-{6-[2-methyl-4-(trifluoromethoxy)phenyl][1,2,4]triazolo[4,3-b]pyridazin-3-yl}benzonitrile]  59.1%
8. c1ccc(Oc2cccc(-c3ccc4ncnn4c3)c2)cc1 [BHN-347, 6-(3-phenoxyphenyl)[1,2,4]triazolo[1,5-a]pyridine]  73.6%
9. FC(F)c1nnc2cnc(-c3ccc(OC(F)(F)F)cc3)cn12 [BHN-23, 3-(difluoromethyl)-6-[4-(trifluoromethoxy)phenyl][1,2,4]triazolo[4,3-a]pyrazine]  74.7%
10. COc1ccc(-c2ccc3cnc(C(F)(F)F)n3c2)cc1 [BHN-30, 6-(4-methoxyphenyl)-3-(trifluoromethyl)imidazo[1,5-a]pyridine]  77.3%
11. FC(F)c1nnc2ccc(-c3ccc(Oc4ccccc4)cc3)nn12 [BHN-13, 3-(difluoromethyl)-6-(4-phenoxyphenyl)[1,2,4]triazolo[4,3-b]pyridazine]  87.1%
